According to PMC2939729 (Cancer cell, 2010):

Tests used:
[1] = biological target: BMK1 (Homo sapiens, UniProt Q13164); test: EGF-induced BMK1 activation in HeLa cells; type: cell-based; settings: 1 μM compound for one hour, EGF 17 min
[2] = tested on: ERK1/2; test: EGF-induced ERK1/2 activation in HeLa cells; type: cell-based, human; settings: 1 μM compound for one hour, EGF 17 min

Sequence of BMK1 (Q13164 whole entry): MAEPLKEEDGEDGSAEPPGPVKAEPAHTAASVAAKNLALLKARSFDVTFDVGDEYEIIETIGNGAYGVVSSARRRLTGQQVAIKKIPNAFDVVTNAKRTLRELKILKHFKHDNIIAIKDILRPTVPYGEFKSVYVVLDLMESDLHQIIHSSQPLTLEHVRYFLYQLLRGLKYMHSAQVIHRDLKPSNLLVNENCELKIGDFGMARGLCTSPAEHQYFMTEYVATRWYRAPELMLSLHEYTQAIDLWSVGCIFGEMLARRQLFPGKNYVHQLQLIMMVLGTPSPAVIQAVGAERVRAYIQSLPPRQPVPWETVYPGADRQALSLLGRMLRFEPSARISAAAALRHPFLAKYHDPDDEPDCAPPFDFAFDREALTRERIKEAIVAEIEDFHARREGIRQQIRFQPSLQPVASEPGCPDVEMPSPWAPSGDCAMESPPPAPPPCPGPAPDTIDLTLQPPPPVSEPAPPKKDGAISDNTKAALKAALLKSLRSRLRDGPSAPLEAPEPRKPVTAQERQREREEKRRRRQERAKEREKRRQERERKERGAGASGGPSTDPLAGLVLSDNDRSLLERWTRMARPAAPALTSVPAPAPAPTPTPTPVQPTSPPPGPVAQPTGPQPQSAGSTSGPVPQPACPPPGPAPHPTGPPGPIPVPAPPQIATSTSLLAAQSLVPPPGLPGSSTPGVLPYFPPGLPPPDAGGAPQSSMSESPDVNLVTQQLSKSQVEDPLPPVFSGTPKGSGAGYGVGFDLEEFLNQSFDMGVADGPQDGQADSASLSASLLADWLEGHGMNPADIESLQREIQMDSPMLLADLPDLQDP

Growth factor-induced activation of cellular BMK1 [1]: not BMK1 activation
SMILES: O=C(NOCC1CC1)c1ccc(F)c(F)c1Nc1ccc(I)cc1Cl [PD184352, reference compound]
Growth factor-induced activation of cellular ERK1/2 [2]: only blocked ERK1/2
